US8937068B2, “Pyridopyrazine derivatives and their use” (Zentaris GmbH, priority 2005, dated 2015)

What was measured:
[1] = biological target: Erk2 (Homo sapiens, UniProt P28482); assay: Cell-free kinase assay (ALPHA technology), Erk2; assay type: biochemical; conditions: 10 μM ATP
Procedure: The inhibitory effect of the compounds according to the invention was tested on various serine/threonine, tyrosine and lipid kinases in enzymatic assays. […] The commercial kinase proteins (Proqinase, Upstate) were used as recombinant fusion proteins with GST (glutathion-S-transferase) or His-Tag. Depending on the type of substrate, the various kinase reactions were quantified by means of suitable ALPHA™ beads (Perkin-Elmer). The substance testing is described in detail hereinafter for the Erk assay. […] a) MAPK-ALPHAs (e.g. […] The kinase reaction was then stopped by adding ALPHA bead mixes (10 μg/ml, #6760603/Perkin-Elmer) pre-incubated with 1 nM GST:Grp1 fusion protein (Upstate) and 15 nM biotinylated PIP3 (#C-39B6/Echelon) in 50 mM Hepes, 50 mM NaCl, 50 mM EDTA and 0.1% BSA and left to stand overnight. The fluorescence was detected the following morning in a Fusion™^aα-system (Perkin-Elmer). […] Eight determinations were made for each control and two for the substance samples. […] The IC50 values were determined using GraphPadPrism.

[2] = biological target: PI3Kalpha (Homo sapiens (Human), UniProt P42336); assay: Cell-free kinase assay (ALPHA technology), PI3Kalpha; assay type: biochemical; conditions: 100 μM ATP
Procedure: (§1) The inhibitory effect of the compounds according to the invention was tested on various serine/threonine, tyrosine and lipid kinases in enzymatic assays. Recombinant human kinases such as, for example, Erk2, PI3Kalpha, -beta, -gamma, -delta, p38alpha, p38gamma, Jnk1, Jnk2 and others were used in this case, partly as full-length kinases, partly as shortened fragments, but at least consisting of the functional kinase domains. The commercial kinase proteins (Proqinase, Upstate) were used as recombinant fusion proteins with GST (glutathion-S-transferase) or His-Tag. Depending on the type of substrate, the various kinase reactions were quantified by means of suitable ALPHA™ beads (Perkin-Elmer).
(§2) The substance testing is described in detail hereinafter for the Erk assay.
(§3) a) MAPK-ALPHAs (e.g. Erk2): the test substance, 0.625 ng Erk2 (#14-173, Upstate), 10 μM ATP and 15 nM biotinylated MBP (myelin basic protein) substrate were incubated on a 384-well Optiplate (Perkin-Elmer) in a volume of 15 μl for 1 h in 25 mM Tris, 10 mM MgCl2, 0.1% Tween-20, 100 μM NaVO4, 2 mM DTT at pH 7.5. The kinase reaction was then stopped by adding 10 μl of the ALPHA bead mixes (10 μg/ml, #6760617/Perkin-Elmer) pre-incubated with anti-phospho MBP antibody (320 pM, #05-429/Upstate) in 25 mM Tris, 200 mM NaCl, 110 nM EDTA and 0.3% BSA and left to stand overnight. b) PI3K-ALPHAs (e.g. PI3Kalpha): the test substance, 1 ng PI3Kalpha (#14-602, Upstate), 100 μM ATP and 20 μM PIP2 substrate (#P4508, Echelon) were incubated on a 384-well Optiplate (Perkin-Elmer) for 1 h in 50 mM Hepes, 50 mM NaCl, 5 mM MgCl2, 0.05% Chaps, 5 mM DTT at pH 7.4. The kinase reaction was then stopped by adding ALPHA bead mixes (10 μg/ml, #6760603/Perkin-Elmer) pre-incubated with 1 nM GST:Grp1 fusion protein (Upstate) and 15 nM biotinylated PIP3 (#C-39B6/Echelon) in 50 mM Hepes, 50 mM NaCl, 50 mM EDTA and 0.1% BSA and left to stand overnight.
(§4) The fluorescence was detected the following morning in a Fusion™^aα-system (Perkin-Elmer).
(§5) The %-inhibition values per substance concentration were calculated by means of the following formula from the raw data determined in the Fusion™ ? :
(§6) Eight determinations were made for each control and two for the substance samples. The 0% control either contains no ATP or no substrate, the 100% control (fully active kinase) contains no test substance. The IC50 values were determined using GraphPadPrism.

[3] = biological target: p38alpha (Homo sapiens (Human), UniProt Q16539); assay: Cell-free kinase assay (ALPHA technology), p38alpha; assay type: biochemical; conditions: 10 μM ATP
Procedure: as §1, §2, §3, §4, §5, §6

[4] = system: Jnk1 + Jnk2; assay: Cell-free kinase assay (ALPHA technology), Jnk1 + Jnk2; assay type: biochemical, human; conditions: 10 μM ATP
Procedure: as §1, §2, §3, §4, §5, §6

Chain of p38alpha (Q16539 whole entry): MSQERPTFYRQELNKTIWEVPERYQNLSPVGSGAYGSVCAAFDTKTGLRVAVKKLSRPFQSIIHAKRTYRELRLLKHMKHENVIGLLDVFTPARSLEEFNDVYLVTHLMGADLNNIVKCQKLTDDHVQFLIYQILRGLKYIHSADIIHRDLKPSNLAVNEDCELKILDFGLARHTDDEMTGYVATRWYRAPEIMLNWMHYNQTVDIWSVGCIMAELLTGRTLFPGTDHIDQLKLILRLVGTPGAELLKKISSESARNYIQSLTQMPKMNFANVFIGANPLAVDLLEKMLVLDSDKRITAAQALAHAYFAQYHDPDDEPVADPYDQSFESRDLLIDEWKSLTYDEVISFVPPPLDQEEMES
Chain of PI3Kalpha (P42336 whole entry, the tested form may be a part): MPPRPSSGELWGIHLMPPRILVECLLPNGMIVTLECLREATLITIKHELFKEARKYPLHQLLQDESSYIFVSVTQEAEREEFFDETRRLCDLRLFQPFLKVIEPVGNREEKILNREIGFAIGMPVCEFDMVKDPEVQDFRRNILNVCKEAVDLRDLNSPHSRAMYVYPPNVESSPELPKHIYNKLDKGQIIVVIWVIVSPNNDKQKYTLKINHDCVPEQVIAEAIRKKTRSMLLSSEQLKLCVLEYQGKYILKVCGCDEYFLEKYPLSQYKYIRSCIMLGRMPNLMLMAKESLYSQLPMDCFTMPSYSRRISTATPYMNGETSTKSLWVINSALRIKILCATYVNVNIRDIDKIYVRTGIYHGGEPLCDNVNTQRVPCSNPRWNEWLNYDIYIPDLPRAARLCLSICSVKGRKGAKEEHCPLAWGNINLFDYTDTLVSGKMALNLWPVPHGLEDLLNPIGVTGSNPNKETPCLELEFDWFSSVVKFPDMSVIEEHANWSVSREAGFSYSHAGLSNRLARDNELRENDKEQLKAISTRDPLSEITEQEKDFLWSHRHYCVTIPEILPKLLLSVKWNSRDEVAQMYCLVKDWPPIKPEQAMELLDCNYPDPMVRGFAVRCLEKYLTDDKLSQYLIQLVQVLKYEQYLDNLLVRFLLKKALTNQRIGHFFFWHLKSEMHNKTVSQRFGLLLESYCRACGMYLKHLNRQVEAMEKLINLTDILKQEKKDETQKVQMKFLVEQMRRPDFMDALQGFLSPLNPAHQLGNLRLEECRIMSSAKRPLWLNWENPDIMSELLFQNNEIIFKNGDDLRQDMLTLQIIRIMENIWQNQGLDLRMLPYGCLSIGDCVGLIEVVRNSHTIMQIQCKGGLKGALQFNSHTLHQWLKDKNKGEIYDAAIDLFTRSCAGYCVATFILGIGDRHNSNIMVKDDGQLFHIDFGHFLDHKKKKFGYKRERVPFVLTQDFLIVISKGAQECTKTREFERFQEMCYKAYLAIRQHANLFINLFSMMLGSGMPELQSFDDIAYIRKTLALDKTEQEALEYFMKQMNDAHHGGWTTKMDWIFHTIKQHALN
Chain of PI3Kalpha (P27986 whole entry partner, the tested form may be a part): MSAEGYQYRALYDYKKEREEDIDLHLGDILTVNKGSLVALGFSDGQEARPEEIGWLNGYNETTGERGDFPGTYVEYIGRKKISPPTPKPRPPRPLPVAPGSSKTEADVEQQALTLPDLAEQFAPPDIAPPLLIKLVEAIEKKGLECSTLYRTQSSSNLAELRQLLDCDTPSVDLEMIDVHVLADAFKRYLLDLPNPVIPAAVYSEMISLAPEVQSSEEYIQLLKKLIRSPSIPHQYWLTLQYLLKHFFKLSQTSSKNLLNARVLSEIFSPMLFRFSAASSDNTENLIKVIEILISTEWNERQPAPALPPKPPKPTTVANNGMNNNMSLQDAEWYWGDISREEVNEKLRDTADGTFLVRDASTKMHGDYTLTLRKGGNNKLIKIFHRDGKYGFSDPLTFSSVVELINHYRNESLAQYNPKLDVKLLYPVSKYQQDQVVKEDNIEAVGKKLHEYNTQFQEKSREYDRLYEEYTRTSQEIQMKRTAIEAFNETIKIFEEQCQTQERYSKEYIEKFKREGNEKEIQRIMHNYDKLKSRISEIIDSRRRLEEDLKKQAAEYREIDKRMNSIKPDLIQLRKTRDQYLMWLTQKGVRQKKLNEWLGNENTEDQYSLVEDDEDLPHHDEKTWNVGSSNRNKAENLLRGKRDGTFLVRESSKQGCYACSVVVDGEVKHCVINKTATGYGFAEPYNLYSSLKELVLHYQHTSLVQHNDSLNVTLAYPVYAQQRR
Chain of Erk2 (P28482 2-360 limits assumed): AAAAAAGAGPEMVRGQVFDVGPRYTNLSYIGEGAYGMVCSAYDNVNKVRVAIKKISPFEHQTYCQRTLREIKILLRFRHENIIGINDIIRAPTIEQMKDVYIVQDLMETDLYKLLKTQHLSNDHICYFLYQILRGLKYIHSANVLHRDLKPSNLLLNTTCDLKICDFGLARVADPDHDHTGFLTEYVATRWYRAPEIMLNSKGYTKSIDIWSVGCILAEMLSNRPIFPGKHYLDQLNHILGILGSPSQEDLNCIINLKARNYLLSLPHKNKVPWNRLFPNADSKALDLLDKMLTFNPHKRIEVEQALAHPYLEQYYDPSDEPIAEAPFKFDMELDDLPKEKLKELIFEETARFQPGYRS

SMILES | IC50 [1] | IC50 [2] | IC50 [3] | IC50 [4]
CCNC(=O)Nc1ccc2ncc(Nc3ccc(OC)cc3)nc2n1 [Compound 158, 1-Ethyl-3-[3-(4-methoxy-phenylamino)-pyrido[2,3-b]pyrazin-6-yl]-urea] | > 100 µM | 0.186 µM | > 100 µM | > 31.6 µM
O=C(NCCCO)Nc1ccc2ncc(-c3ccccc3)nc2n1 [Compound 147, 1-(3-Hydroxy-propyl)-3-(3-phenyl-pyrido[2,3-b]pyrazin-6-yl)-urea] | 0.711 µM | 4.1 µM | > 100 µM | 14.2 µM
CCNC(=O)Nc1ccc2ncc(Nc3ccccc3C)nc2n1 [Compound 160, 1-Ethyl-3-(3-o-tolylamino-pyrido[2,3-b]-pyrazin-6-yl)-urea] | 5.8 µM | 2.9 µM | > 31.6 µM | > 31.6 µM
CCNC(=O)Nc1ccc2ncc(-c3cccc(C(N)=O)c3)nc2n1 [Compound 155, 3-[6-(3-Ethyl-ureido)-pyrido[2,3-b]-pyrazin-3-yl]-benzamide] | > 100 µM | 5 µM | > 100 µM | 7.8 µM
CCNC(=O)Nc1ccc2ncc(-c3ccc(N)c(OC)c3)nc2n1 [Compound 154, 1-[3-(4-Amino-3-methoxy-phenyl)-pyrido[2,3-b]pyrazin-6-yl]-3-ethyl-urea] | 0.592 µM | 0.984 µM | > 31.6 µM | 2.8 µM
CCNC(=O)Nc1ccc2ncc(-c3ccc(N)cc3)nc2n1 [Compound 82, 1-[3-(4-Amino-phenyl)-pyrido[2,3-b]pyrazin-6-yl]-3-ethyl-urea] | 0.944 µM | 6.4 µM | > 31.6 µM | 1.1 µM
CCNC(=S)Nc1ccc2ncc(-c3ccc(O)cc3)nc2n1 [Compound 149, 1-Ethyl-3-[3-(4-hydroxy-phenyl)-pyrido[2,3-b]pyrazin-6-yl]-thiourea] | 0.954 µM | 3.5 µM | > 100 µM | > 31.6 µM
CCN(C(C)=O)C(=O)Nc1ccc2ncc(-c3ccccc3)nc2n1 [Compound 46, 1-Acetyl-1-ethyl-3-(3-phenyl-pyrido[2,3-b]pyrazin-6-yl)-urea] | 9.5 µM | > 100 µM | 0.495 µM | > 100 µM
CNC(=S)Nc1ccc2ncc(-c3ccc(N)cc3)nc2n1 [Compound 44, 1-[3-(4-Amino-phenyl)-pyrido[2,3-b]pyrazin-6-yl]-3-methyl-thiourea] | 2.5 µM | 3.8 µM | > 100 µM | 1.5 µM
CCNC(=O)Nc1ccc2ncc(Nc3cccnc3)nc2n1 [Compound 161, 1-Ethyl-3-[3-(pyridin-3-ylamino)-pyrido-[2,3-b]pyrazin-6-yl]-urea] | > 100 µM | 1.1 µM | > 100 µM | > 100 µM
CCNC(=O)Nc1ccc2ncc(Nc3ccc(CC)cc3)nc2n1 [Compound 162, 1-Ethyl-3-[3-(4-ethyl-phenylamino)-pyrido[2,3-b]pyrazin-6-yl]-urea] | > 100 µM | 0.19 µM | > 100 µM | > 31.6 µM
CCNC(=O)Nc1ccc2ncc(Nc3ccc(C)c(OC)c3)nc2n1 [Compound 163, 1-Ethyl-3-[3-(3-methoxy-4-methyl-phenylamino)-pyrido[2,3-b]pyrazin-6-yl]-urea] | 26.9 µM | 0.096 µM | > 100 µM | > 31.6 µM
CCNC(=O)Nc1ccc2ncc(Nc3ccc(C)cn3)nc2n1 [Compound 165, 1-Ethyl-3-[3-(5-methyl-pyridin-2-yl-amino)-pyrido[2,3-b]pyrazin-6-yl]-urea] | 19.4 µM | 1.2 µM | > 100 µM | 27.1 µM

Second part, the molecule after the results:

IC50 [1] | IC50 [2] | IC50 [3] | IC50 [4] | SMILES
8 µM | 0.202 µM | 1.4 µM | 8.1 µM | CCNC(=O)Nc1ccc2ncc(Nc3cnc4ccccc4c3)nc2n1 [Compound 179, 1-Ethyl-3-[3-(chinolin-3-ylamino)-pyrido[2,3-b]pyrazin-6-yl]-urea]
> 100 µM | 0.164 µM | > 31.6 µM | 2.3 µM | CCNC(=O)Nc1ccc2ncc(Nc3ccc4ccccc4c3)nc2n1 [Compound 178, 1-Ethyl-3-[3-(naphthalin-2-ylamino)-pyrido[2,3-b]pyrazin-6-yl]-urea]
31.6 µM | 0.422 µM | > 100 µM | 1.8 µM | CCNC(=O)Nc1ccc2ncc(Nc3ccc(C#N)cc3)nc2n1 [Compound 192, 1-[3-(4-Cyano-phenylamino)-pyrido-[2,3-b]pyrazin-6-yl]-3-ethyl-urea]
> 31.6 µM | 1.1 µM | > 100 µM | 21 µM | CCNC(=O)Nc1ccc2ncc(Nc3cccc(OC(C)C)c3)nc2n1 [Compound 182, 1-Ethyl-3-[3-(3-isopropoxy-phenylamino)-pyrido[2,3-b]pyrazin-6-yl]-urea]
> 31.6 µM | 0.154 µM | > 100 µM | 4.3 µM | CCNC(=O)Nc1ccc2ncc(Nc3cc(Cl)c(O)c(Cl)c3)nc2n1 [Compound 185, 1-[3-(3,5-Dichloro-4-hydroxy-phenylamino)-pyrido[2,3-b]pyrazin-6-yl]-3-ethyl-urea]
13.7 µM | 1.3 µM | > 100 µM | 21.9 µM | CCNC(=O)Nc1ccc2ncc(Nc3ccn(C)n3)nc2n1 [Compound 166, 1-Ethyl-3-[3-(1-methyl-1H-pyrazol-3-ylamino)-pyrido[2,3-b]pyrazin-6-yl]-urea]
20.3 µM | 0.237 µM | > 100 µM | 6.2 µM | CCNC(=O)Nc1ccc2ncc(Nc3cc(C(=O)O)cc(C(F)(F)F)c3)nc2n1 [Compound 189, 3-[6-(3-Ethyl-ureido)-pyrido[2,3-b]-pyrazin-3-ylamino]-5-trifluoromethyl-benzoic acid]
> 31.6 µM | 0.295 µM | > 100 µM | 3.9 µM | CCNC(=O)Nc1ccc2ncc(Nc3ccc(OC)c(Cl)c3)nc2n1 [Compound 177, 1-[3-(3-Chloro-4-methoxy-phenylamino)-pyrido[2,3-b]pyrazin-6-yl]-3-ethyl-urea]
0.41 µM | 4 µM | > 100 µM | 4 µM | CCNC(=O)Nc1ccc2ncc(-c3c(C)n[nH]c3C)nc2n1 [Compound 172, 1-[3-(3,5-Dimethyl-1H-pyrazol-4-yl)-pyrido[2,3-b]pyrazin-6-yl]-3-ethyl-urea]
> 100 µM | 0.271 µM | > 100 µM | 31 µM | CCNC(=O)Nc1ccc2ncc(Nc3ccc(OC)nc3)nc2n1 [Compound 190, 1-Ethyl-3-[3-(6-methoxy-pyridin-3-ylamino)-pyrido[2,3-b]pyrazin-6-yl]-urea]
> 100 µM | 1.1 µM | > 100 µM | 27.3 µM | CCNC(=O)Nc1ccc2ncc(Nc3ccc(F)cc3)nc2n1 [Compound 167, 1-Ethyl-3-[3-(4-fluoro-phenylamino)-pyrido[2,3-b]pyrazin-6-yl]-urea]
1.7 µM | 0.739 µM | > 100 µM | 4.3 µM | CCNC(=O)Nc1ccc2ncc(Nc3cnccn3)nc2n1 [Compound 181, 1-Ethyl-3-[3-(pyrazin-2-ylamino)-pyrido[2,3-b]pyrazin-6-yl]-urea]
